# Experimental data taken from US20250353891A1 (MEDIMMUNE LIMITED, priority 2022, published 2025).
# Starred links: 1 amine or outer side, 2 acyl side, 3 side chain; linkers in the order of their positions; H or OH if unused. Non-standard residues stand in square brackets, D forms with d. Residues, ends and D or L forms follow the SMILES beside them. Groups on a side chain read outwards from the residue. *: point of attachment. C20 diacid = O=C(O)CCCCCCCCCCCCCCCCCCC(=O)*; C18 diacid = O=C(O)CCCCCCCCCCCCCCCCC(=O)*; γGlu = O=C(O)[C@H](CCC(=O)[*:2])N[*:1]; αMeF = C[C@](N)(Cc1ccccc1)C(=O)O; PEG2 = NCCOCCOCCC(=O)O; AEEA = NCCOCCOCC(=O)O; Aib = CC(C)(N)C(=O)O
# Legend:
# [1] = target: human glucagon receptor (hGCGR) (Homo sapiens, UniProt P47871); experiment: cAMP production (HTRF) in CHO cells expressing hGCGR; type: cell-based; set-up: expressed in transfected cells; conditions: hGluc-R EC50 (pM), cAMP, CHO cells, 0.1% BSA, geometric mean
# Method in brief: (§1)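 Potency values represent EC50 from 4-parameter logistic curves of HTRF % Delta F signal. Receptor-expressing CHO cells (hGCGR 2×10^5 cells/mL, hGLP-1R 1×10^5 cells/mL) were exposed for 30 min at room temperature before two-step cAMP detection.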
# [2] = target: human GLP-1 receptor (hGLP-1R) (Homo sapiens, UniProt P43220); experiment: cAMP production (HTRF) in CHO cells expressing hGLP-1R; type: cell-based; set-up: expressed in transfected cells; conditions: for % Relative Potency Ratio: % GLP-1R activity relative to GLP-1 / % GlucR activity relative to glucagon; for EC50: hGLP-1R EC50 (pM)
# Method in brief: as §1
# Sequence of human glucagon receptor (hGCGR) (P47871 26-477): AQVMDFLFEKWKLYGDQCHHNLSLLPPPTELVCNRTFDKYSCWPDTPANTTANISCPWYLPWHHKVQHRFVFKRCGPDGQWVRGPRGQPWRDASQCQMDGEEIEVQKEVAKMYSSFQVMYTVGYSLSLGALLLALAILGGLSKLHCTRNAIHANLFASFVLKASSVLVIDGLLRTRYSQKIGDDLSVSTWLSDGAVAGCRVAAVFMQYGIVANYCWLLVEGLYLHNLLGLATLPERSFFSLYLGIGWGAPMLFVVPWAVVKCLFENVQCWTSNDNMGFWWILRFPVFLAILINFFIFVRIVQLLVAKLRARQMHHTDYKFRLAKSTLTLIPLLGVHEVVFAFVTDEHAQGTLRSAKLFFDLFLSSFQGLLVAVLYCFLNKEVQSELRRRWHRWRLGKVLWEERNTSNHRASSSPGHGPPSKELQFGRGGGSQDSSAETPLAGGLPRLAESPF
# Sequence of human GLP-1 receptor (hGLP-1R) (P43220 24-463): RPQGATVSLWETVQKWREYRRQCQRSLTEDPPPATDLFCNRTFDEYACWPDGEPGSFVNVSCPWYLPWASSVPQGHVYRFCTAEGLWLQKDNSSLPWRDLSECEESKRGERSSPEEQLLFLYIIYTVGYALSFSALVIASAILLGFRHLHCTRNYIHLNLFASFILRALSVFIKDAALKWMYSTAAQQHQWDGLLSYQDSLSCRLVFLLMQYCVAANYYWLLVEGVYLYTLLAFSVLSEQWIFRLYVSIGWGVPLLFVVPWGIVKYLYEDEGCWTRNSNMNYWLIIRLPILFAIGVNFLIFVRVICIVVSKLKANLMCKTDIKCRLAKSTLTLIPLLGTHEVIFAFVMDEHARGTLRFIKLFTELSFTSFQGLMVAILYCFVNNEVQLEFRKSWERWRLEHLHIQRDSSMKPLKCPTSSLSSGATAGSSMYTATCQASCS
Structure (SMILES),EC50 [1] [pM],% Relative Potency Ratio [2],EC50 [2] [pM]
CC[C@H](C)[C@H](NC(=O)[C@H](Cc1c[nH]c2ccccc12)NC(=O)[C@H](CCCCNC(=O)COCCOCCNC(=O)COCCOCCNC(=O)CC[C@H](NC(=O)CCCCCCCCCCCCCCCCC(=O)O)C(=O)O)NC(=O)[C@@H](NC(=O)[C@H](Cc1ccccc1)NC(=O)[C@H](CC(=O)O)NC(=O)[C@H](CCC(N)=O)NC(=O)[C@H](C)NC(=O)[C@H](C)NC(=O)[C@H](CCC(N)=O)NC(=O)[C@H](CO)NC(=O)[C@H](CC(=O)O)NC(=O)[C@H](CC(C)C)NC(=O)[C@](C)(Cc1ccccc1)NC(=O)[C@H](CCCCN)NC(=O)[C@H](CO)NC(=O)[C@@H](NC(=O)[C@H](CC(=O)O)NC(=O)[C@H](CO)NC(=O)[C@@H](NC(=O)[C@](C)(Cc1ccccc1)NC(=O)[C@H](CO)NC(=O)CNC(=O)[C@H](Cc1c[nH]cn1)NC(=O)C(C)(C)NC(=O)[C@@H](N)Cc1c[nH]cn1)[C@@H](C)O)C(C)C)C(C)C)C(=O)N[C@@H](C)C(=O)N[C@@H](CC(N)=O)C(=O)N[C@H](C(=O)NCC(=O)NCC(N)=O)[C@@H](C)O [Peptide 350] (H-H[Aib]HGS[αMeF]TSDVSK[αMeF]LDSQAAQDFVK([AEEA-AEEA-γGlu-C18 diacid])WIANTGG-NH2; N-terminus assumed),384,8.6,88.6
CC[C@H](C)[C@H](NC(=O)[C@H](Cc1c[nH]c2ccccc12)NC(=O)[C@H](CCCCNC(=O)CC[C@H](NC(=O)CCCCCCCCCCCCCCCCC(=O)O)C(=O)O)NC(=O)[C@@H](NC(=O)[C@H](Cc1ccccc1)NC(=O)[C@H](CC(=O)O)NC(=O)[C@H](CCC(N)=O)NC(=O)[C@H](C)NC(=O)[C@H](C)NC(=O)[C@H](CCC(N)=O)NC(=O)[C@H](CO)NC(=O)[C@H](CC(=O)O)NC(=O)[C@H](CC(C)C)NC(=O)[C@](C)(Cc1ccccc1)NC(=O)[C@H](CCCCN)NC(=O)[C@H](CO)NC(=O)[C@@H](NC(=O)[C@H](CC(=O)O)NC(=O)[C@H](CO)NC(=O)[C@@H](NC(=O)[C@](C)(Cc1ccccc1)NC(=O)[C@H](CO)NC(=O)CNC(=O)[C@H](Cc1c[nH]cn1)NC(=O)C(C)(C)NC(=O)[C@@H](N)Cc1c[nH]cn1)[C@@H](C)O)C(C)C)C(C)C)C(=O)N[C@@H](C)C(=O)N[C@@H](CC(N)=O)C(=O)N[C@H](C(N)=O)[C@@H](C)O [Peptide 351] (H-H[Aib]HGS[αMeF]TSDVSK[αMeF]LDSQAAQDFVK([γGlu-C18 diacid])WIANT-NH2),216,0.7,605
CC[C@H](C)[C@H](NC(=O)[C@H](Cc1c[nH]c2ccccc12)NC(=O)[C@H](CCCCNC(=O)CCOCCOCCNC(=O)CCOCCOCCNC(=O)CC[C@H](NC(=O)CC[C@H](NC(=O)CCCCCCCCCCCCCCCCC(=O)O)C(=O)O)C(=O)O)NC(=O)[C@@H](NC(=O)[C@H](Cc1ccccc1)NC(=O)[C@H](CC(=O)O)NC(=O)[C@H](CCC(N)=O)NC(=O)[C@H](C)NC(=O)[C@H](C)NC(=O)[C@H](CCC(N)=O)NC(=O)[C@H](CO)NC(=O)[C@H](CC(=O)O)NC(=O)[C@H](CC(C)C)NC(=O)[C@](C)(Cc1ccccc1)NC(=O)[C@H](CCCCN)NC(=O)[C@H](CO)NC(=O)[C@@H](NC(=O)[C@H](CC(=O)O)NC(=O)[C@H](CO)NC(=O)[C@@H](NC(=O)[C@](C)(Cc1ccccc1)NC(=O)[C@H](CO)NC(=O)CNC(=O)[C@H](Cc1c[nH]cn1)NC(=O)C(C)(C)NC(=O)[C@@H](N)Cc1c[nH]cn1)[C@@H](C)O)C(C)C)C(C)C)C(=O)N[C@@H](C)C(=O)N[C@@H](CC(N)=O)C(=O)N[C@H](C(N)=O)[C@@H](C)O [Peptide 352] (H-H[Aib]HGS[αMeF]TSDVSK[αMeF]LDSQAAQDFVK([PEG2-PEG2-γGlu-γGlu-C18 diacid])WIANT-NH2; N-terminus assumed),139,1.4,193
CC[C@H](C)[C@H](NC(=O)[C@H](Cc1c[nH]c2ccccc12)NC(=O)[C@H](CCCCNC(=O)CC[C@H](NC(=O)CC[C@H](NC(=O)CCOCCOCCNC(=O)CC[C@H](NC(=O)CC[C@H](NC(=O)CCCCCCCCCCCCCCCCC(=O)O)C(=O)O)C(=O)O)C(=O)O)C(=O)O)NC(=O)[C@@H](NC(=O)[C@H](Cc1ccccc1)NC(=O)[C@H](CC(=O)O)NC(=O)[C@H](CCC(N)=O)NC(=O)[C@H](C)NC(=O)[C@H](C)NC(=O)[C@H](CCC(N)=O)NC(=O)[C@H](CO)NC(=O)[C@H](CC(=O)O)NC(=O)[C@H](CC(C)C)NC(=O)[C@](C)(Cc1ccccc1)NC(=O)[C@H](CCCCN)NC(=O)[C@H](CO)NC(=O)[C@@H](NC(=O)[C@H](CC(=O)O)NC(=O)[C@H](CO)NC(=O)[C@@H](NC(=O)[C@](C)(Cc1ccccc1)NC(=O)[C@H](CO)NC(=O)CNC(=O)[C@H](Cc1c[nH]cn1)NC(=O)C(C)(C)NC(=O)[C@@H](N)Cc1c[nH]cn1)[C@@H](C)O)C(C)C)C(C)C)C(=O)N[C@@H](C)C(=O)N[C@@H](CC(N)=O)C(=O)N[C@H](C(N)=O)[C@@H](C)O [Peptide 353] (H-H[Aib]HGS[αMeF]TSDVSK[αMeF]LDSQAAQDFVK([γGlu-γGlu-PEG2-γGlu-γGlu-C18 diacid])WIANT-NH2; N-terminus assumed),163,1.0,311
CC[C@H](C)[C@H](NC(=O)[C@H](Cc1c[nH]c2ccccc12)NC(=O)[C@H](CCCCNC(=O)CC[C@H](NC(=O)CCCCCCCCCCCCCCCCCCC(=O)O)C(=O)O)NC(=O)[C@@H](NC(=O)[C@H](Cc1ccccc1)NC(=O)[C@H](CC(=O)O)NC(=O)[C@H](CCC(N)=O)NC(=O)[C@H](C)NC(=O)[C@H](C)NC(=O)[C@H](CCC(N)=O)NC(=O)[C@H](CO)NC(=O)[C@H](CC(=O)O)NC(=O)[C@H](CC(C)C)NC(=O)[C@](C)(Cc1ccccc1)NC(=O)[C@H](CCCCN)NC(=O)[C@H](CO)NC(=O)[C@@H](NC(=O)[C@H](CC(=O)O)NC(=O)[C@H](CO)NC(=O)[C@@H](NC(=O)[C@](C)(Cc1ccccc1)NC(=O)[C@H](CO)NC(=O)CNC(=O)[C@H](Cc1c[nH]cn1)NC(=O)C(C)(C)NC(=O)[C@@H](N)Cc1c[nH]cn1)[C@@H](C)O)C(C)C)C(C)C)C(=O)N[C@@H](C)C(=O)N[C@@H](CC(N)=O)C(=O)N[C@H](C(N)=O)[C@@H](C)O [Peptide 354],902,1.6,1110
CC[C@H](C)[C@H](NC(=O)[C@H](Cc1c[nH]c2ccccc12)NC(=O)[C@H](CCCCNC(=O)CCOCCOCCNC(=O)CCOCCOCCNC(=O)CC[C@H](NC(=O)CC[C@H](NC(=O)CCCCCCCCCCCCCCCCCCC(=O)O)C(=O)O)C(=O)O)NC(=O)[C@@H](NC(=O)[C@H](Cc1ccccc1)NC(=O)[C@H](CC(=O)O)NC(=O)[C@H](CCC(N)=O)NC(=O)[C@H](C)NC(=O)[C@H](C)NC(=O)[C@H](CCC(N)=O)NC(=O)[C@H](CO)NC(=O)[C@H](CC(=O)O)NC(=O)[C@H](CC(C)C)NC(=O)[C@](C)(Cc1ccccc1)NC(=O)[C@H](CCCCN)NC(=O)[C@H](CO)NC(=O)[C@@H](NC(=O)[C@H](CC(=O)O)NC(=O)[C@H](CO)NC(=O)[C@@H](NC(=O)[C@](C)(Cc1ccccc1)NC(=O)[C@H](CO)NC(=O)CNC(=O)[C@H](Cc1c[nH]cn1)NC(=O)C(C)(C)NC(=O)[C@@H](N)Cc1c[nH]cn1)[C@@H](C)O)C(C)C)C(C)C)C(=O)N[C@@H](C)C(=O)N[C@@H](CC(N)=O)C(=O)N[C@H](C(N)=O)[C@@H](C)O [Peptide 355] (H-H[Aib]HGS[αMeF]TSDVSK[αMeF]LDSQAAQDFVK([PEG2-PEG2-γGlu-γGlu-C20 diacid])WIANT-NH2; N-terminus assumed),478,2.2,424
CC[C@H](C)[C@H](NC(=O)[C@H](Cc1c[nH]c2ccccc12)NC(=O)[C@H](CCCCNC(=O)COCCOCCNC(=O)COCCOCCNC(=O)CC[C@H](NC(=O)CCCCCCCCCCCCCCCCCCC(=O)O)C(=O)O)NC(=O)[C@@H](NC(=O)[C@H](Cc1ccccc1)NC(=O)[C@H](CC(=O)O)NC(=O)[C@H](CCC(N)=O)NC(=O)[C@H](C)NC(=O)[C@H](C)NC(=O)[C@H](CCC(N)=O)NC(=O)[C@H](CO)NC(=O)[C@H](CC(=O)O)NC(=O)[C@H](CC(C)C)NC(=O)[C@](C)(Cc1ccccc1)NC(=O)[C@H](CCCCN)NC(=O)[C@H](CO)NC(=O)[C@@H](NC(=O)[C@H](CC(=O)O)NC(=O)[C@H](CO)NC(=O)[C@@H](NC(=O)[C@](C)(Cc1ccccc1)NC(=O)[C@H](CO)NC(=O)CNC(=O)[C@H](Cc1c[nH]cn1)NC(=O)C(C)(C)NC(=O)[C@@H](N)Cc1c[nH]cn1)[C@@H](C)O)C(C)C)C(C)C)C(=O)N[C@@H](C)C(=O)N[C@@H](CC(N)=O)C(=O)N[C@H](C(N)=O)[C@@H](C)O [Peptide 356] (H-H[Aib]HGS[αMeF]TSDVSK[αMeF]LDSQAAQDFVK([AEEA-AEEA-γGlu-C20 diacid])WIANT-NH2; N-terminus assumed),316,2.1,304
CC[C@H](C)[C@H](NC(=O)[C@H](Cc1c[nH]c2ccccc12)NC(=O)[C@H](CCCCNC(=O)COCCOCCNC(=O)COCCOCCNC(=O)CC[C@H](NC(=O)CCCCCCCCCCCCCCCCC(=O)O)C(=O)O)NC(=O)[C@@H](NC(=O)[C@H](Cc1ccccc1)NC(=O)[C@H](CC(=O)O)NC(=O)[C@H](CCC(N)=O)NC(=O)[C@H](C)NC(=O)[C@H](C)NC(=O)[C@H](CCC(N)=O)NC(=O)[C@H](CO)NC(=O)[C@H](CC(=O)O)NC(=O)[C@H](CC(C)C)NC(=O)[C@](C)(Cc1ccccc1)NC(=O)[C@H](CCCCN)NC(=O)[C@H](CO)NC(=O)[C@@H](NC(=O)[C@H](CC(=O)O)NC(=O)[C@H](CO)NC(=O)[C@@H](NC(=O)[C@](C)(Cc1ccccc1)NC(=O)[C@H](CO)NC(=O)CNC(=O)[C@@H](NC(=O)C(C)(C)NC(=O)[C@@H](N)Cc1c[nH]cn1)[C@@H](C)CC)[C@@H](C)O)C(C)C)C(C)C)C(=O)N[C@@H](C)C(=O)N[C@@H](CC(N)=O)C(=O)N[C@H](C(N)=O)[C@@H](C)O [Peptide 358] (H-H[Aib]IGS[αMeF]TSDVSK[αMeF]LDSQAAQDFVK([AEEA-AEEA-γGlu-C18 diacid])WIANT-NH2; N-terminus assumed),16000,–,74.9
